# Source: patent US20080279829A1, “Phenyl-(4-Phenyl-Pyrimidin-2-Yl)-Amines For Enhancing Immunotolerance” (priority 2005, published 2008)
# Tested on: BALB/c diabetic female mice with C57BI/6 islet allograft
# Assay: cellular therapy with in vitro TEST COMPOUND-treated BM-DC in islet allograft transplantation
# Type: in vivo
# Conditions: injected i.v. one day before transplantation
# Experimental: To further investigate the effect of TEST COMPOUND on murine DCs bone marrow cells from BALB/c mice are differentiated with GM-CSF into bone marrow derived DCs (BM-DCs) in the presence or absence of TEST COMPOUND (20 nM). BM-DC are left immature or activated with LPS.
# BM-DC are injected (3×105, i.v.) into BALB/c diabetic female mice one day before C57BI/6 islet allograft transplantation. Graft survival is monitored by weekly measurement of blood glucose level (*two-tailed t test).
smiles,measurement,value
"FC(F)(F)c1ccc(Nc2nccc(-c3cccc(Cl)c3)n2)cc1 [Compound B, N-[4-(3-Chloro-phenyl)-pyrimidin-2-yl]-N-(4-trifluoromethyl-phenyl)-amine]",islets allograft acceptance after injection of LPS-activated (mature) treated recipient type BM-DC,significantly prevents islet graft rejection
